From PubChem BioAssay (NCI)
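These data come from cells grown in 96-well plates and exposed to compound for 48 hours at five concentrations. GI50 marks 50% less growth. Definition used: TGI = concentration required for complete inhibition of growth.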

Assays:
Assay in all cases: NCI anticancer screen, dose series, 48 h
[1] = system: 786-0 renal
[2] = system: A498 renal
[3] = system: A549 NSCLC
[4] = system: ACHN renal
[5] = system: BT-549 breast
[6] = system: CAKI-1 renal
[7] = system: CCRF-CEM leukemia
[8] = system: COLO 205 colon
[9] = system: DU-145 prostate
[10] = system: EKVX NSCLC
[11] = system: HCC-2998 colon
[12] = system: HCT-116 colon
[13] = system: HCT-15 colon
[14] = system: HL-60(TB) leukemia
[15] = system: HOP-62 NSCLC
[16] = system: HOP-92 NSCLC
[17] = system: HS 578T breast
[18] = system: HT29 colon
[19] = system: IGROV1 ovarian
[20] = system: K-562 leukemia
[21] = system: KM12 colon
[22] = system: LOX IMVI melanoma
[23] = system: M14 melanoma
[24] = system: MALME-3M melanoma
[25] = system: MCF7 breast
[26] = system: MDA-MB-231 breast
[27] = system: MDA-MB-435
[28] = system: MOLT-4 leukemia
[29] = system: NCI-H226 lung

Q: What does the source list for `COc1cc(OC)c(S(N)(=O)=O)cc1C(=O)/C=C/c1ccccc1`?
A: GI50 [1]: 4.82 µM; TGI [1]: 20.8 µM; GI50 [2]: 16.9 µM; TGI [2]: 30.7 µM; GI50 [3]: 10.5 µM; TGI [3]: 22.7 µM; GI50 [4]: 7 µM; TGI [4]: 20.1 µM; GI50 [5]: 2.65 µM; TGI [5]: 14.1 µM; GI50 [6]: 1.86 µM; TGI [6]: 15.6 µM; GI50 [7]: 3.93 µM; TGI [7]: 67.2 µM; GI50 [8]: 10.6 µM; TGI [8]: 24 µM; GI50 [9]: 1.88 µM; TGI [9]: 13.9 µM; GI50 [10]: 14.2 µM; TGI [10]: 27.6 µM; GI50 [11]: 12.5 µM; TGI [11]: 26.2 µM; GI50 [12]: 1.49 µM; TGI [12]: 14.8 µM; GI50 [13]: 3.55 µM; TGI [13]: 20.1 µM; GI50 [14]: 2.27 µM; TGI [14]: 23.2 µM; GI50 [15]: 9.51 µM; TGI [15]: 22.6 µM; GI50 [16]: 2.06 µM; TGI [16]: 12 µM; GI50 [17]: 5.89 µM; TGI [17]: 43.3 µM; GI50 [18]: 4.02 µM; TGI [18]: 13.8 µM; GI50 [19]: 9.74 µM; TGI [19]: 27.6 µM; GI50 [20]: 1.5 µM; TGI [20]: 22.3 µM; GI50 [21]: 3.31 µM; TGI [21]: 18.5 µM; GI50 [22]: 0.335 µM; TGI [22]: 12.4 µM; GI50 [23]: 7.51 µM; TGI [23]: 23.8 µM; GI50 [24]: 13.9 µM; TGI [24]: 29.3 µM; GI50 [25]: 0.97 µM; TGI [25]: 14.2 µM; GI50 [26]: 11.9 µM; TGI [26]: 27 µM; GI50 [27]: 2.12 µM; TGI [27]: 12 µM; GI50 [28]: 10.1 µM; TGI [28]: 43.1 µM; GI50 [29]: 10 µM
